Experimental data taken from US11623919B2, “Heterocyclic P2X7 antagonists” (AXXAM S.P.A., priority 2017, dated 2023).

What was measured:
Assay in all cases: Screen Quest Fluo-8 No Wash Calcium Assay (Bz-ATP evoked Ca2+ influx, FLIPR)
Type in all cases: cell-based
[1] = target: T1, P2X7 receptor (Homo sapiens, UniProt Q99572); parameters: hP2X7 (IC50; nM); other: hP2X7; HEK-293 cells stably transfected with P2X7 receptor, Bz-ATP at EC80, Fluo-8 NW; potency; details: hP2X7; HEK-293 cells stably transfected with P2X7 receptor, Bz-ATP at EC80, Fluo-8 NW; potency ranges A-D
T1 sequence (Q99572 1-595): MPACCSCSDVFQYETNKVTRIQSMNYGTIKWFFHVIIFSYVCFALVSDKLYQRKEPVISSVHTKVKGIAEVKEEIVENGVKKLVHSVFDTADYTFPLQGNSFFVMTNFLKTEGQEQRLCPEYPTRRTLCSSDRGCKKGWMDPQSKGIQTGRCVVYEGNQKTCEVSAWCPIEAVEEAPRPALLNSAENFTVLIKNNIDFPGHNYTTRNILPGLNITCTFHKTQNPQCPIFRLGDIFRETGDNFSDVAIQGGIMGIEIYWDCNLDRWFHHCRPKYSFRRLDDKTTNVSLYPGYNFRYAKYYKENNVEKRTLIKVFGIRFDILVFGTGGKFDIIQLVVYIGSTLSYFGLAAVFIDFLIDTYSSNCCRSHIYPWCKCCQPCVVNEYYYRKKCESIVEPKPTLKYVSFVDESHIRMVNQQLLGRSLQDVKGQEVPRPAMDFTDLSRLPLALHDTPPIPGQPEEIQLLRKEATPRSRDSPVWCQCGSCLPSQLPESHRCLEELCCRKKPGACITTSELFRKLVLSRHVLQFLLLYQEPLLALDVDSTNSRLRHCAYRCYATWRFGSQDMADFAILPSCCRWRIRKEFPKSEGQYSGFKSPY
How it was run: (§1)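 Compounds were added to Fluo-8-loaded P2X7-transfected HEK-293 cells 5 min before an EC80 Bz-ATP challenge, and Ca2+ influx was then recorded for 3 min. Buffer held 0.3 mM Ca2+ and no Mg2+. Inhibition was normalised to A438079, giving IC50 values.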

[2] = target: T2, P2X7 receptor (Rattus norvegicus, UniProt Q64663); details: rP2X7; HEK-293 cells stably transfected with P2X7 receptor, Bz-ATP at EC80, Fluo-8 NW; potency ranges A-D
T2 construct: rP2X7 (IC50; nM); other: rP2X7; HEK-293 cells stably transfected with P2X7 receptor, Bz-ATP at EC80, Fluo-8 NW; potency
T2 sequence (Q64663 1-595): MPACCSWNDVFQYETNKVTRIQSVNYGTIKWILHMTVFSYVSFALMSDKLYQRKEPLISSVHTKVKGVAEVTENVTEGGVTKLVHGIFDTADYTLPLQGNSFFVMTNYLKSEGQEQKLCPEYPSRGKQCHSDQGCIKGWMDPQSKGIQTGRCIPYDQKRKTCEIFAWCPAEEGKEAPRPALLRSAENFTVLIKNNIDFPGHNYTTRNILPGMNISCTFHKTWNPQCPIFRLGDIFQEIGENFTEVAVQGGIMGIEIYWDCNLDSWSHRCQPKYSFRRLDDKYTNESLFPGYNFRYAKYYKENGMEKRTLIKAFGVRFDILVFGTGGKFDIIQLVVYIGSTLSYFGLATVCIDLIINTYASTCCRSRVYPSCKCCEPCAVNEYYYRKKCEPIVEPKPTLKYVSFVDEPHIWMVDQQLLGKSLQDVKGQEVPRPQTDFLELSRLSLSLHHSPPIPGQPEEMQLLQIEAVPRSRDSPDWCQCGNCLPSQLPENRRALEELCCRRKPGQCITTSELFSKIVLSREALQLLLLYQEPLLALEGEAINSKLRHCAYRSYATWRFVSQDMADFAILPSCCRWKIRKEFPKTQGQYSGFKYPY
How it was run: as §1

[3] = target: T3, P2X7 receptor (Mus musculus, UniProt Q9Z1M0); details: mP2X7; HEK-293 cells stably transfected with P2X7 receptor, Bz-ATP at EC80, Fluo-8 NW; potency ranges A-D
T3 construct: mP2X7 (IC50; nM); other: mP2X7; HEK-293 cells stably transfected with P2X7 receptor, Bz-ATP at EC80, Fluo-8 NW; potency
T3 sequence (Q9Z1M0 1-595): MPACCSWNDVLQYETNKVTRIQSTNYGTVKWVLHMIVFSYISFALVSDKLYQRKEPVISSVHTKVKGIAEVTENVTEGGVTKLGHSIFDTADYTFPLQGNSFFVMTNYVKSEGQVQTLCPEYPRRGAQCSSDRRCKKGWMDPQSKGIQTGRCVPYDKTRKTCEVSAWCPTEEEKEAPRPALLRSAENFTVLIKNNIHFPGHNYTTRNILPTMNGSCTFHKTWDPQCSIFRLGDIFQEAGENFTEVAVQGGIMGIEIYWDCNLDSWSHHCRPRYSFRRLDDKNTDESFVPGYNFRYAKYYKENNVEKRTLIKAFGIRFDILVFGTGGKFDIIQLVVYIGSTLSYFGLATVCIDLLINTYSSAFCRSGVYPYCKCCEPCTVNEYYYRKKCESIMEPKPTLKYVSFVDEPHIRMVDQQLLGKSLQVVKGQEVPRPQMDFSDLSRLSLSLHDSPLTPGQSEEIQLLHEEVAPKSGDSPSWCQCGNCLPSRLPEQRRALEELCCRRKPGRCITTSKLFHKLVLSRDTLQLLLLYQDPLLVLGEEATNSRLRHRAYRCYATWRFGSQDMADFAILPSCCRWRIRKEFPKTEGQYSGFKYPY
How it was run: as §1

IC50 [1] [nM]	IC50 [2] [nM]	IC50 [3] [nM]	Compound
200 to 1000	200 to 1000	1000 to 10000	Cc1ncccc1Cc1noc(=O)n1CC1CCCCC1 [Example 218, 4-(cyclohexylmethyl)-3-[(2-methylpyridin-3-yl)methyl]-4,5-dihydro-1,2,4-oxadiazol-5-one]
200 to 1000	1000 to 10000	1000 to 10000	Cc1ncccc1Cc1noc(=O)n1CC1CCC(F)(F)CC1 [Example 219, 4-[(4,4-difluorocyclohexyl)methyl]-3-[(2-methylpyridin-3-yl)methyl]-4,5-dihydro-1,2,4-oxadiazol-5-one]
< 200	< 200	200 to 1000	O=c1onc(CN2CCC(F)(F)CC2)n1Cc1c(F)cccc1Cl [Example 220, 4-[(2-chloro-6-fluorophenyl)methyl]-3-[(4,4-difluoropiperidin-1-yl)methyl]-4,5-dihydro-1,2,4-oxadiazol-5-one]
> 10000	1000 to 10000	1000 to 10000	O=c1onc(CN2CCC(F)(F)CC2)n1Cc1ccc(F)cc1 [Example 221, 3-[(4,4-difluoropiperidin-1-yl)methyl]-4-[(4-fluorophenyl)methyl]-4,5-dihydro-1,2,4-oxadiazol-5-one]
> 10000	1000 to 10000	1000 to 10000	O=c1onc(CN2CCC(F)(F)CC2)n1CC1CCCCC1 [Example 222, 4-(cyclohexylmethyl)-3-[(4,4-difluoropiperidin-1-yl)methyl]-4,5-dihydro-1,2,4-oxadiazol-5-one]
> 10000	> 10000	> 10000	O=c1onc(CN2CCC(F)(F)CC2)n1CC1CCC(F)(F)CC1 [Example 223, 4-[(4,4-difluorocyclohexyl)methyl]-3-[(4,4-difluoropiperidin-1-yl)methyl]-4,5-dihydro-1,2,4-oxadiazol-5-one]
200 to 1000	200 to 1000	200 to 1000	O=c1onc(CN2CCCC(F)(F)C2)n1Cc1c(F)cccc1Cl [Example 224, 4-[(2-chloro-6-fluorophenyl)methyl]-3-[(3,3-difluoropiperidin-1-yl)methyl]-4,5-dihydro-1,2,4-oxadiazol-5-one]
> 10000	1000 to 10000	> 10000	O=c1onc(CN2CCCC(F)(F)C2)n1Cc1ccc(F)cc1 [Example 225, 3-[(3,3-difluoropiperidin-1-yl)methyl]-4-[(4-fluorophenyl)methyl]-4,5-dihydro-1,2,4-oxadiazol-5-one]
< 200	< 200	< 200	CC1CC(F)(F)CCN1Cc1noc(=O)n1Cc1c(F)cccc1Cl (stereo not drawn) [Example 226, 4-[(2-chloro-6-fluorophenyl)methyl]-3-[(4,4-difluoro-2-methylpiperidin-1-yl)methyl]-4,5-dihydro-1,2,4-oxadiazol-5-one]
1000 to 10000	200 to 1000	1000 to 10000	CC1CC(F)(F)CCN1Cc1noc(=O)n1Cc1ccc(F)cc1 (stereo not drawn) [Example 227, 3-[(4,4-difluoro-2-methylpiperidin-1-yl)methyl]-4-[(4-fluorophenyl)methyl]-4,5-dihydro-1,2,4-oxadiazol-5-one]
< 200	200 to 1000	200 to 1000	O=c1onc(CN2CCOc3ccccc32)n1Cc1ccc(F)cc1 [Example 228, 3-(3,4-dihydro-2H-1,4-benzoxazin-4-ylmethyl)-4-[(4-fluorophenyl)methyl]-4,5-dihydro-1,2,4-oxadiazol-5-one]
1000 to 10000	1000 to 10000	1000 to 10000	O=c1onc(CN2CCOc3ccccc32)n1Cc1c(F)cccc1Cl [Example 229, 4-[(2-chloro-6-fluorophenyl)methyl]-3-(3,4-dihydro-2H-1,4-benzoxazin-4-ylmethyl)-4,5-dihydro-1,2,4-oxadiazol-5-one]
< 200	< 200	< 200	O=c1onc(CN2CCOc3ccccc32)n1CC1CCCCC1 [Example 230, 4-(cyclohexylmethyl)-3-(3,4-dihydro-2H-1,4-benzoxazin-4-ylmethyl)-4,5-dihydro-1,2,4-oxadiazol-5-one]
< 200	< 200	< 200	O=c1onc(CN2CCOc3ccccc32)n1CC1CCC(F)(F)CC1 [Example 231, 4-[(4,4-difluorocyclohexyl)methyl]-3-(3,4-dihydro-2H-1,4-benzoxazin-4-ylmethyl)-4,5-dihydro-1,2,4-oxadiazol-5-one]
> 10000	1000 to 10000	> 10000	O=c1onc(CN2CCCCC2)n1Cc1ccc(F)cc1 [Example 240, 4-[(4-fluorophenyl)methyl]-3-(piperidin-1-ylmethyl)-4,5-dihydro-1,2,4-oxadiazol-5-one]
200 to 1000	< 200	200 to 1000	O=c1onc(CN2CCCCC2)n1Cc1c(F)cccc1Cl [Example 241, 4-[(2-chloro-6-fluorophenyl)methyl]-3-[(piperidin-1-yl)methyl]-1,2,4-oxadiazol-5(4H)-one]
1000 to 10000	200 to 1000	200 to 1000	O=c1onc(CN2CCc3ccccc3C2)n1Cc1c(F)cccc1Cl [Example 244, 4-[(2-chloro-6-fluorophenyl)methyl]-3-(1,2,3,4-tetrahydroisoquinolin-2-ylmethyl)-4,5-dihydro-1,2,4-oxadiazol-5-one]
